The source of these data is PubChem BioAssay AID328 (DTP/NCI, 2004).

This assay relates to BDF1 mice, P388 leukemia ip, median survival T/C. The experiment in a line: NCI In Vivo Anticancer Drug Screen. Data for tumor model P388 Leukemia (intraperitoneal) in B6D2F1 (BDF1) mice. The following applies: endpoint: median survival time, higher = longer survival. Put shortly:
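Antitumour effect was judged in vivo: survival in drug-treated mice, normalised to that of vehicle-dosed controls, gives the reported T/C.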

Each structure is given as a SMILES string. Toxic doses and inconclusive results are not listed. Non-standard residues stand in square brackets, D forms with d. Residues, ends and D or L forms follow the SMILES beside them. ξ: configuration not given here. ξPhe(4-N(CH2CH2Cl)2) = NC(Cc1ccc(N(CCCl)CCCl)cc1)C(=O)O

Regarding `CC(C(=O)O)C(=O)O.[NH-]C1CCCCC1[NH-].[Pt+2]`, the T/C was 150 % of control (dose: 50.0 mg/kg/injection, schedule: Q04DX002 (ip), vehicle: Klucel (hydroxypropylcellulose) (HPC)) and 203 % of control (dose: 200.0 mg/kg/injection, schedule: Q04DX002 (ip), vehicle: Klucel (hydroxypropylcellulose) (HPC)).
With `CCOC(=O)C(Cc1ccc(N(CCCl)CCCl)cc1)NC(=O)C(Cc1ccccc1)NC(=O)C(NC(=O)CNC(=O)C1CCCN1)C(C)C` (stereo unspecified) (H-PGVF[ξPhe(4-N(CH2CH2Cl)2)]-OEt; configuration not given here), the T/C reads like this: (dose: 5.0 mg/kg/injection, schedule: Q04DX003 (ip), vehicle: water) 95 % of control; (dose: 10.0 mg/kg/injection, schedule: Q04DX003 (ip), vehicle: water) 100 % of control; (dose: 20.0 mg/kg/injection, schedule: Q04DX003 (ip), vehicle: water) 176 % of control; (dose: 40.0 mg/kg/injection, schedule: Q04DX003 (ip), vehicle: water) 241 % of control; (dose: 80.0 mg/kg/injection, schedule: Q04DX003 (ip), vehicle: water) 265 % of control.
Consider `COc1cc(-c2nc3ccccc3c(=O)o2)cc(OC)c1OC`, for which the T/C is, setting by setting: (dose: 50.0 mg/kg/injection, schedule: Q01DX009 (ip), vehicle: saline with Tween-80) 105 % of control; (dose: 100.0 mg/kg/injection, schedule: Q01DX009 (ip), vehicle: saline with Tween-80) 115 % of control; (dose: 100.0 mg/kg/injection, schedule: Q04DX003 (ip), vehicle: saline with Tween-80) 100 % of control; (dose: 200.0 mg/kg/injection, schedule: Q01DX009 (ip), vehicle: saline with Tween-80) 100 % of control; (dose: 200.0 mg/kg/injection, schedule: Q04DX003 (ip), vehicle: saline with Tween-80) 100 % of control.
With `C[CH2][Pb]([CH2]C)([CH2]C)[O]C(=O)CBr`, the T/C is, setting by setting: (dose: 2.0 mg/kg/injection, schedule: Q01DX009 (ip), vehicle: other) 109 % of control; (dose: 4.5 mg/kg/injection, schedule: Q01DX009 (ip), vehicle: other) 101 % of control; (dose: 6.0 mg/kg/injection, schedule: Q01DX009 (ip), vehicle: Klucel (hydroxypropylcellulose) (HPC)) 120 % of control; (dose: 12.0 mg/kg/injection, schedule: Q01DX009 (ip), vehicle: Klucel (hydroxypropylcellulose) (HPC)) 103 % of control.
